# pIC50: −log10 of the molar value. Activity calls are given as the source filed them. No cut-off for these calls is given here.
# Tests used:
# NCI-H1975 [1] = assay: Induction of cell cycle arrest in human NCI-H1975 cells harboring EGFR L858R/T790M mutant assessed as accumulation of cells in S phase at 0.5 uM measured after 18 hrs by PI/RNaseA staining based flow cytometry analysis (Rvb= 39.78%); assay type: functional
# NCI-H1975 [2] = assay: Induction of cell cycle arrest in human NCI-H1975 cells harboring EGFR L858R/T790M mutant assessed as accumulation of cells in G2/M phase at 0.5 uM measured after 18 hrs by PI/RNaseA staining based flow cytometry analysis (Rvb= 17.33%); assay type: functional
# A549 [3] = assay: Induction of cell cycle arrest in human A549 cells harboring wild type EGFR assessed as accumulation of cells in S phase at 5 uM measured after 18 hrs by PI/RNaseA staining based flow cytometry analysis (Rvb= 33.26%); assay type: functional
# [4] = target: Ribosomal protein S6 kinase beta-1 (Homo sapiens) (UniProt P23443); assay: Inhibition of P70S6K phosphorylation in human NCI-H1975 cells at 0.1 to 5 uM incubated for 2 hrs by immunoblotting analysis; assay type: cell-based; conditions: dose 0.1-5 µM
# NCI-H1975 [5] = assay: Induction of apoptosis in human NCI-H1975 cells harboring EGFR L858R/T790M mutant assessed as live cells at 5 uM measured after 18 hrs by Annexin V-FITC/PI staining based flow cytometry analysis (Rvb= 89.4%); assay type: functional
# NCI-H1975 [6] = assay: Induction of apoptosis in human NCI-H1975 cells harboring EGFR L858R/T790M mutant assessed as total apoptotic cells at 5 uM measured after 18 hrs by Annexin V-FITC/PI staining based flow cytometry analysis (Rvb= 9.2%); assay type: functional
# HCC827 [7] = assay: Induction of cell cycle arrest in human HCC827 cells harboring EGFR del E746-A750 mutant assessed as accumulation of cells in G2/M phase at 5 uM measured after 18 hrs by PI/RNaseA staining based flow cytometry analysis (Rvb= 16.78%); assay type: functional
# NCI-H1975 [8] = assay: Induction of apoptosis in human NCI-H1975 cells harboring EGFR L858R/T790M mutant assessed as late apoptotic cells at 0.5 uM measured after 18 hrs by Annexin V-FITC/PI staining based flow cytometry analysis (Rvb= 0.1%); assay type: functional
# HCC827 [9] = assay: Cytotoxicity against human HCC827 cells harboring EGFR del E746-A750 mutant assessed as reduction in cell viability measured after 48 hrs by CCK8 assay; assay type: functional, cell-based; conditions: HCC827, 48 h
# NCI-H1975 [10] = assay: Induction of cell cycle arrest in human NCI-H1975 cells harboring EGFR L858R/T790M mutant assessed as accumulation of cells in G2/M phase at 1 uM measured after 18 hrs by PI/RNaseA staining based flow cytometry analysis (Rvb= 17.33%); assay type: functional
# NCI-H1975 [11] = assay: Induction of cell cycle arrest in human NCI-H1975 cells harboring EGFR L858R/T790M mutant assessed as accumulation of cells in S phase at 5 uM measured after 18 hrs by PI/RNaseA staining based flow cytometry analysis (Rvb= 39.78%); assay type: functional
# NCI-H1975 [12] = assay: Induction of cell cycle arrest in human NCI-H1975 cells harboring EGFR L858R/T790M mutant assessed as accumulation of cells in G0/G1 phase at 0.5 uM measured after 18 hrs by PI/RNaseA staining based flow cytometry analysis (Rvb= 42.69%); assay type: functional
# HCC827 [13] = assay: Induction of apoptosis in human HCC827 cells harboring EGFR del E746-A750 mutant assessed as late apoptotic cells at 5 uM measured after 18 hrs by Annexin V-FITC/PI staining based flow cytometry analysis (Rvb= 1.2%); assay type: functional
# [14] = target: MAP kinase p38 (Homo sapiens) (UniProt O15264+Q15759+Q16539+P53778); assay: Inhibition of p38 MAPK phosphorylation at Thr180/Tyr182 residue in human HBE cells at 5 uM incubated for 2 hrs by immunoblotting analysis; assay type: cell-based
# HCC827 [15] = assay: Induction of cell cycle arrest in human HCC827 cells harboring EGFR del E746-A750 mutant assessed as accumulation of cells in S phase at 0.5 uM measured after 18 hrs by PI/RNaseA staining based flow cytometry analysis (Rvb= 33.62%); assay type: functional
# NCI-H1975 [16] = assay: Induction of apoptosis in human NCI-H1975 cells harboring EGFR L858R/T790M mutant assessed as late apoptotic cells at 5 uM measured after 18 hrs by Annexin V-FITC/PI staining based flow cytometry analysis (Rvb= 0.1%); assay type: functional
# HBE = assay: Inhibition of AKT/S6 phosphorylation […] in human HBE cells at 5 uM incubated for 2 hrs by immunoblotting analysis; assay type: cell-based
# HCC827 [17] = assay: Induction of cell cycle arrest in human HCC827 cells harboring EGFR del E746-A750 mutant assessed as accumulation of cells in S phase at 5 uM measured after 18 hrs by PI/RNaseA staining based flow cytometry analysis (Rvb= 33.62%); assay type: functional
# NCI-H1975 [18] = assay: Induction of apoptosis in human NCI-H1975 cells harboring EGFR L858R/T790M mutant assessed as live cells at 0.5 uM measured after 18 hrs by Annexin V-FITC/PI staining based flow cytometry analysis (Rvb= 89.4%); assay type: functional
# HCC827 [19] = assay: Induction of cell cycle arrest in human HCC827 cells harboring EGFR del E746-A750 mutant assessed as accumulation of cells in G2/M phase at 1 uM measured after 18 hrs by PI/RNaseA staining based flow cytometry analysis (Rvb= 16.78%); assay type: functional
# A549 [20] = assay: Induction of cell cycle arrest in human A549 cells harboring wild type EGFR assessed as accumulation of cells in G0/G1 phase at 0.5 uM measured after 18 hrs by PI/RNaseA staining based flow cytometry analysis (Rvb= 58.27%); assay type: functional
# [21] = target: Mitogen-activated protein kinase; ERK1/ERK2 (Homo sapiens) (UniProt P27361+P28482); assay: Inhibition of ERK1/2 phosphorylation at Thr202/Tyr204 residue in human HBE cells at 5 uM incubated for 2 hrs by immunoblotting analysis; assay type: cell-based
# NCI-H460 = assay: Cytotoxicity against human NCI-H460 cells harboring wild type EGFR assessed as reduction in cell viability measured after 48 hrs by CCK8 assay; assay type: functional, cell-based; conditions: NCI-H460, 48 h
# NCI-H1975 [22] = assay: Induction of cell cycle arrest in human NCI-H1975 cells harboring EGFR L858R/T790M mutant assessed as accumulation of cells in G0/G1 phase at 5 uM measured after 18 hrs by PI/RNaseA staining based flow cytometry analysis (Rvb= 42.69%); assay type: functional
# BEAS-2B = assay: Cytotoxicity against human BEAS-2B cells assessed as reduction in cell viability measured after 48 hrs by CCK8 assay; assay type: cell-based
# NCI-H1975 [23] = assay: Inhibition of AKT phosphorylation in human NCI-H1975 cells at 0.1 to 5 uM incubated for 2 hrs by immunoblotting analysis; assay type: cell-based; conditions: dose 0.1-5 µM
# [24] = target: Ribosomal protein S6 kinase beta-1 (Homo sapiens) (UniProt P23443); assay: Inhibition of P70S6K phosphorylation in human HCC827 cells at 0.1 to 5 uM incubated for 2 hrs by immunoblotting analysis; assay type: cell-based; conditions: dose 0.1-5 µM
# NCI-H1975 [25] = assay: Induction of cell cycle arrest in human NCI-H1975 cells harboring EGFR L858R/T790M mutant assessed as accumulation of cells in G2/M phase at 5 uM measured after 18 hrs by PI/RNaseA staining based flow cytometry analysis (Rvb= 17.33%); assay type: functional
# Ribosomal protein S6 kinase beta-1 (Homo sapiens), sequence (P23443 whole entry, looked up): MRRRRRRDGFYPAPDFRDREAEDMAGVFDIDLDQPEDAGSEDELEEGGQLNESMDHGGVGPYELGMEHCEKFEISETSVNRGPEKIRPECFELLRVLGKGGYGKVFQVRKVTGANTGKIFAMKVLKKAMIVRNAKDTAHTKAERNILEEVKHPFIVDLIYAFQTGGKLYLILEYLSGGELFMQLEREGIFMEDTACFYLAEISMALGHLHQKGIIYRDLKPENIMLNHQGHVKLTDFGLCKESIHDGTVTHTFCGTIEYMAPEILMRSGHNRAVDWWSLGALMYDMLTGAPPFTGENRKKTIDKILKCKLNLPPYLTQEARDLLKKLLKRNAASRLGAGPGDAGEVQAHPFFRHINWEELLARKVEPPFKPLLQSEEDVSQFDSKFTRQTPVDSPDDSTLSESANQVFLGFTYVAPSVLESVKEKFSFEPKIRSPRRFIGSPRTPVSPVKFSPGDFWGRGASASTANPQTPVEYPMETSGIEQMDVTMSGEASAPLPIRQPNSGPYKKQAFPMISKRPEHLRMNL
# Mitogen-activated protein kinase; ERK1/ERK2 (Homo sapiens), sequence (P27361 whole entry, looked up): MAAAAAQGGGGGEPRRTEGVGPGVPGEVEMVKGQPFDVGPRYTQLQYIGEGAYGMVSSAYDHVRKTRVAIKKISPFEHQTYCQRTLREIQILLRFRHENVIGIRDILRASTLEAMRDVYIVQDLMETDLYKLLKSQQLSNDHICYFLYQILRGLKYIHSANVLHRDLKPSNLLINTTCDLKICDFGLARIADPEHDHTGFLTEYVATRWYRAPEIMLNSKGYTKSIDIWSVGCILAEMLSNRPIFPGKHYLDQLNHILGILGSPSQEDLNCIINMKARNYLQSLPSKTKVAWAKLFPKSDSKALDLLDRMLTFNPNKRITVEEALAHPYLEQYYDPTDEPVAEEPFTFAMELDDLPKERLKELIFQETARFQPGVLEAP
# Mitogen-activated protein kinase; ERK1/ERK2 (Homo sapiens), sequence (P28482 whole entry, looked up): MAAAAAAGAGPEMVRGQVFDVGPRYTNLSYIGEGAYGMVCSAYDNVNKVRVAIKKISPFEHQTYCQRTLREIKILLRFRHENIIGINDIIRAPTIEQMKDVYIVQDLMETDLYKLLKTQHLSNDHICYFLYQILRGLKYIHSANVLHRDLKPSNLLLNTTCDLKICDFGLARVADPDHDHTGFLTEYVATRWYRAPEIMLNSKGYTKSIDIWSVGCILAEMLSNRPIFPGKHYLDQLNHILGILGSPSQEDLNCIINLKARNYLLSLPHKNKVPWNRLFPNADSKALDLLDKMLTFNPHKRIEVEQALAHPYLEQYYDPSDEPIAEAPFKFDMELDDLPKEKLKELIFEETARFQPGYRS
Structure (SMILES),Activity (NCI-H1975 [1]) [%],Activity (NCI-H1975 [2]) [%],Activity (A549 [3]) [%],inhibition [4],Activity (NCI-H1975 [5]) [%],Activity (NCI-H1975 [6]) [%],Activity (HCC827 [7]) [%],Activity (NCI-H1975 [8]) [%],pIC50 (HCC827 [9]),Activity (NCI-H1975 [10]) [%],Activity (NCI-H1975 [11]) [%],Activity (NCI-H1975 [12]) [%],Activity (HCC827 [13]) [%],inhibition [14],Activity (HCC827 [15]) [%],Activity (NCI-H1975 [16]) [%],inhibition (HBE),Activity (HCC827 [17]) [%],Activity (NCI-H1975 [18]) [%],Activity (HCC827 [19]) [%],also measured
C=CC(=O)Nc1cccc(Oc2nc(Nc3ccc(N4CCN(C)CC4)c([N+](=O)[O-])c3)nc3[nH]ccc23)c1,20.79,14.32,8.2,Active,84.7,13.5,14.12,0.3,6.96,14.81,10.03,64.89,19.4,Active,14.31,0.3,inactive,4.36,85.3,11.55,Activity (A549 [20]): 62.63%; inhibition [21]: Active; pIC50 (NCI-H460): 5.10; Activity (NCI-H1975 [22]): 80.34%; pIC50 (BEAS-2B): 5.43; inhibition (NCI-H1975 [23]): Active; inhibition [24]: Active; Activity (NCI-H1975 [25]): 9.63%
C=CC(=O)Nc1cccc(Oc2nc(Nc3ccc(N4CCN(C)CC4)c(F)c3)nc3[nH]ccc23)c1 [ABIVERTINIB],21.24,17.05,14.85,Active,86.3,11.7,8.82,1.2,7.00,17.13,9.8,61.74,21.6,Active,15.36,0.4,inactive,10.83,89,11.63,Activity (A549 [20]): 59.82%; inhibition [21]: Active; pIC50 (NCI-H460): 5.22; Activity (NCI-H1975 [22]): 79.06%; pIC50 (BEAS-2B): 5.43; inhibition (NCI-H1975 [23]): Active; inhibition [24]: Active; Activity (NCI-H1975 [25]): 11.14%
C=CC(=O)Nc1cccc(Oc2nc(Nc3ccc(N4CCN(C)CC4)c(N)c3)nc3[nH]ccc23)c1,19.32,16.64,6.86,Active,81.9,16.1,7.95,0.3,7.34,11.6,10.15,64.04,16.6,Active,15.39,0.2,inactive,13.93,81.1,7.18,Activity (A549 [20]): 60.45%; inhibition [21]: Active; pIC50 (NCI-H460): 4.57; Activity (NCI-H1975 [22]): 80.62%; pIC50 (BEAS-2B): 5.11; inhibition (NCI-H1975 [23]): Active; inhibition [24]: Active; Activity (NCI-H1975 [25]): 9.23%
